Laboratory results published in patent US20110152236A1 (SANOFI-AVENTIS, priority 2008, published 2011).
Where two headings read alike, the source gives them in different places.

Experiments:
[1] = biological target: T1, human CB1 receptor (Homo sapiens, UniProt P21554); assay: intracellular cyclic AMP test in U373MG cells (HTRF cAMP Dynamic Kit); type: cell-based
T1 construct: U373MG cells naturally expressing the human CB1 receptor; endogenous in cells; host or cells: U373MG cells
Procedure: The compounds according to the invention were the subject of pharmacological tests for determining the activity with respect to human cannabinoid CB1-type receptors. The efficacy of the compounds of formula (I) was determined in a functional test which measures cannabinoid CB1 receptor activity (intracellular cyclic AMP test). The test for detecting intracellular cyclic AMP in U373MG cells naturally expressing the human CB1 receptor was carried out as described in the following reference: Bouaboula et al., 1995, J. Biol. Chem. 270:13973-13980. The HTRF cAMP Dynamic Kit from CisBio was used to quantify the intracellular cyclic AMP. In this test, the IC50 values are between 0.001 μM and 2 μM.

[2] = biological target: T2, cannabinoid CB1 receptor (Mus musculus, UniProt P47746); assay: model of inhibition of gastrointestinal transit induced by racemic CP55,940 in mice; type: in vivo; conditions: 1 mg/kg per os; 3 hours after administration of the product; CP55,940 0.15 mg/kg ip; male CD1 mice
T2 construct: from tissue; host or cells: whole animal (mice; male CD1 mice in the gastrointestinal transit model)
T2 sequence (P47746 whole entry): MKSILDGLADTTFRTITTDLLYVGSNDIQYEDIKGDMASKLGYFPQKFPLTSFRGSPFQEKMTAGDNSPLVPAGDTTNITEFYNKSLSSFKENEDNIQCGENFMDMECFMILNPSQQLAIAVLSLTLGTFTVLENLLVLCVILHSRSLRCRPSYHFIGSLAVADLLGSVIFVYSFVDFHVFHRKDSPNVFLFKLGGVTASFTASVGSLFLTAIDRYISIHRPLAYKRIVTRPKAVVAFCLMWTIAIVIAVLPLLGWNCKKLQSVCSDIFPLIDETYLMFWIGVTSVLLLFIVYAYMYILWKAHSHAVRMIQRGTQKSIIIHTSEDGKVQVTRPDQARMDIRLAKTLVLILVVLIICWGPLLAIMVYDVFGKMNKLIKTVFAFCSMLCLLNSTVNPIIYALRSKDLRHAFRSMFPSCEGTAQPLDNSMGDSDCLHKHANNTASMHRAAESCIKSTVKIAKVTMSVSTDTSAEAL
Procedure: The antagonistic activity of the compounds was also shown by means of the model of inhibition of gastrointestinal transit induced by racemic CP55,940 (1RS,3RS,4RS-3-[hydroxy-2-(1,1-dimethylheptyl)phenyl]-4-(3-hydroxypropyl)cyclohexan-1-ol) in mice, according to the method described by Rinaldi-Carmona et al., J. Pharmacol, Exp. Ther. 2004, 310, 905-914. Briefly, male CD1 mice receive the test product per os 30 minutes or 2 hours before administration of the racemic CP55,940 agonist (1RS,3RS,4RS-3-[hydroxy-2-(1,1-dimethylheptyl)phenyl]-4-(3-hydroxypropyl)cyclohexan-1-ol) (0.15 mg/kg ip in 10% Cremophor). After a further 30 minutes, the animals receive a charcoal bolus po. Thirty minutes later, the animals are euthanized (CO2/O2) and the intestine is dissected. The progression of the charcoal bolus in the intestine is expressed as percentage of the total length of the intestine.

[3] = U373MG cells naturally expressing the human CB1 receptor, intracellular cyclic AMP, read-out: IC50

T1 sequence (P21554 whole entry): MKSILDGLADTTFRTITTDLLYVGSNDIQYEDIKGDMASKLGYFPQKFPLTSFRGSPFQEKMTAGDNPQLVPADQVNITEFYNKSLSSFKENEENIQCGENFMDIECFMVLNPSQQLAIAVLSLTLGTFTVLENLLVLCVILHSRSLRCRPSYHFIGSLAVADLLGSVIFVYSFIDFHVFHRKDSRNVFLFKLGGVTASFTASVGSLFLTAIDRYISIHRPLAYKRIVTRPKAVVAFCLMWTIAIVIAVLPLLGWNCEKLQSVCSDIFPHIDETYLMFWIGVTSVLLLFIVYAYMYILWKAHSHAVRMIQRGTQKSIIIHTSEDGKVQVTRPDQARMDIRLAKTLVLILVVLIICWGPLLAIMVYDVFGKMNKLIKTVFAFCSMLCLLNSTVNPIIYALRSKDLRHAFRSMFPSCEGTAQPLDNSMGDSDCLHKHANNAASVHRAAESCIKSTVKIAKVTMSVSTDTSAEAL

Compound | melting point [°C] | further results
CS(=O)(=O)N(c1cccc(C(=O)Nc2cc[nH]n2)c1)C1CN(C(c2ccc(Cl)cc2)c2ccc(Cl)cc2)C1 [Compound 9, 3-[{1-[bis(4-chlorophenyl)methyl]azetidin-3-yl}(methylsulphonyl)amino]-N-(1H-pyrazol-3-yl)-benzamide] | 150 | –
CS(=O)(=O)N(c1cccc(C(=O)Nc2nonc2N)c1)C1CN(C(c2ccc(Cl)cc2)c2ccc(Cl)cc2)C1 [Compound 10, N-(4-amino-1,2,5-oxadiazol-3-yl)-3-[{1-[bis(4-chlorophenyl)methyl]azetidin-3-yl}(methylsulphonyl)amino]benzamide] | 255 | IC50 [1, 3]: 0.04 µM
CS(=O)(=O)N(c1cc(F)cc(C(=O)Nc2ccon2)c1)C1CN(C(c2ccc(Cl)cc2)c2ccc(Cl)cc2)C1 [Compound 17, 3-[{1-[bis(4-chlorophenyl)methyl]azetidin-3-yl}(methylsulphonyl)amino]-5-fluoro-N-(isoxazol-3-yl)benzamide] | 219 to 221 | –
CS(=O)(=O)N(c1cc(F)cc(C(=O)Nc2ccccn2)c1)C1CN(C(c2ccc(Cl)cc2)c2ccc(Cl)cc2)C1 [Compound 18, 3-[{1-[bis(4-chlorophenyl)methyl]azetidin-3-yl}(methylsulphonyl)amino]-5-fluoro-N-(pyridin-2-yl)benzamide] | – | IC50 [1, 3]: 0.006 µM
Cc1cccc(NC(=O)c2cc(F)cc(N(C3CN(C(c4ccc(Cl)cc4)c4ccc(Cl)cc4)C3)S(C)(=O)=O)c2)n1 [Compound 28, 3-[{1-[bis(4-chlorophenyl)methyl]azetidin-3-yl}(methylsulphonyl)amino]-5-fluoro-N-(6-methylpyridin-2-yl)benzamide] | 176 to 178 | –
CS(=O)(=O)N(c1cccc(C(=O)NCCc2ncccn2)c1)C1CN(C(c2ccc(Cl)cc2)c2ccc(Cl)cc2)C1 [Compound 16, 3-[{1-[bis(4-chlorophenyl)methyl]azetidin-3-yl}(methylsulphonyl)amino]-N-[2-(pyrimidin-2-yl)-ethyl]benzamide] | 120 | –
CS(=O)(=O)N(c1cccc(C(=O)NCc2cc(O)no2)c1)C1CN(C(c2ccc(Cl)cc2)c2ccc(Cl)cc2)C1 | 209 | –
CS(=O)(=O)N(c1cccc(C(=O)NCCn2cccn2)c1)C1CN(C(c2ccc(Cl)cc2)c2ccc(Cl)cc2)C1 [Compound 15, 3-[{1-[bis(4-chlorophenyl)methyl]azetidin-3-yl}(methylsulphonyl)amino]-N[2-(1H-pyrazol-1-yl)ethyl]benzamide] | 264 | IC50 [1, 3]: 0.134 µM
CS(=O)(=O)N(c1cc(F)cc(C(=O)NCc2ccc(=O)[nH]c2)c1)C1CN(C(c2ccc(Cl)cc2)c2ccc(Cl)cc2)C1 [Compound 47] | – | IC50 [1]: 0.009 µM; percentages of inhibition [2]: 68%
CS(=O)(=O)N(c1cccc(C(=O)NCc2nn[nH]n2)c1)C1CN(C(c2ccc(Cl)cc2)c2ccc(Cl)cc2)C1 [Compound 33, 3-[{1-[bis(4-chlorophenyl)methyl]azetidin-3-yl}(methylsulphonyl)amino]-N-(2H-tetrazol-5-ylmethyl)benzamide] | 124 | –
CC(NC(=O)c1cc(F)cc(N(C2CN(C(c3ccc(Cl)cc3)c3ccc(Cl)cc3)C2)S(C)(=O)=O)c1)c1ccccn1 (stereo not drawn) [Compound 39] | – | IC50 [1]: 0.033 µM; percentages of inhibition [2]: 66%
CS(=O)(=O)N(c1cc(F)cc(C(=O)Nc2cc(C#N)ccn2)c1)C1CN(C(c2ccc(Cl)cc2)c2ccc(Cl)cc2)C1 [Compound 34] | – | IC50 [1]: 0.02 µM; percentages of inhibition [2]: 46%

Second part, led by results:

melting point [°C] | Compound | further results
134 | Cn1cc(O)nc1NC(=O)c1cccc(N(C2CN(C(c3ccc(Cl)cc3)c3ccc(Cl)cc3)C2)S(C)(=O)=O)c1 [Compound 4, 3-[{1-[bis(4-chlorophenyl)methyl]azetidin-3-yl}(methylsulphonyl)amino]-N-(4-hydroxy-1-methyl-1H-imidazol-2-yl)benzamide] | –
244 | CS(=O)(=O)N(c1cccc(C(=O)Nc2nccs2)c1)C1CN(C(c2ccc(Cl)cc2)c2ccc(Cl)cc2)C1 [Compound 1, 3-[{1-[Bis(4-chlorophenyl)methyl]azetidin-3-yl}(methylsulphonyl)amino]-N-(1,3-thiazol-2-yl)benzamide] | –
210 | CS(=O)(=O)N(c1cccc(C(=O)NCc2nc[nH]n2)c1)C1CN(C(c2ccc(Cl)cc2)c2ccc(Cl)cc2)C1 [Compound 13, 3-[{1-[Bis(4-chlorophenyl)methyl]azetidin-3-yl}(methylsulphonyl)amino]-N-(1H-1,2,4-triazol-3-ylmethyl)benzamide] | –
174 | CS(=O)(=O)N(c1cccc(C(=O)Nc2n[nH]cc2C(N)=O)c1)C1CN(C(c2ccc(Cl)cc2)c2ccc(Cl)cc2)C1 [Compound 12, 3-[({3-[{1-[bis(4-chlorophenyl)methyl]azetidin-3-yl}(methylsulphonyl)amino]phenyl}carbonyl)-amino]-1H-pyrazole-4-carboxamide] | –
222 | CS(=O)(=O)N(c1cccc(C(=O)Nc2nc(N)n[nH]2)c1)C1CN(C(c2ccc(Cl)cc2)c2ccc(Cl)cc2)C1 [Compound 31, N-(3-amino-1H-1,2,4-triazol-5-yl)-3-[{1-[bis(4-chlorophenyl)methyl]azetidin-3-yl}(methylsulphonyl)amino]benzamide] | –
224 to 226 | Cc1cc(NC(=O)c2cc(F)cc(N(C3CN(C(c4ccc(Cl)cc4)c4ccc(Cl)cc4)C3)S(C)(=O)=O)c2)on1 [Compound 26, 3-[{1-[bis(4-chlorophenyl)methyl]azetidin-3-yl}(methylsulphonyl)amino]-5-fluoro-N-(3-methylisoxazol-5-yl)benzamide] | –
137 | CS(=O)(=O)N(c1cccc(C(=O)Nc2ncccn2)c1)C1CN(C(c2ccc(Cl)cc2)c2ccc(Cl)cc2)C1 [Compound 8, 3-[{1-[bis(4-chlorophenyl)methyl]azetidin-3-yl}(methylsulphonyl)amino]-N-(pyrimidin-2-yl)-benzamide] | –
224 | CS(=O)(=O)N(c1cccc(C(=O)NCc2cc[nH]n2)c1)C1CN(C(c2ccc(Cl)cc2)c2ccc(Cl)cc2)C1 [Compound 14, 3-[{1-[Bis(4-chlorophenyl)methyl]azetidin-3-yl}(methylsulphonyl)amino]-N-(1H-pyrazol-3-ylmethyl)benzamide] | –
210 | CS(=O)(=O)N(c1cccc(C(=O)Nc2ccc(N)nc2)c1)C1CN(C(c2ccc(Cl)cc2)c2ccc(Cl)cc2)C1 [Compound 30, N-(6-aminopyridin-3-yl)-3-[{1-[bis(4-chlorophenyl)methyl]azetidin-3-yl}(methylsulphonyl)amino]benzamide] | –
234 to 236 | CS(=O)(=O)N(c1cc(F)cc(C(=O)Nc2cnoc2)c1)C1CN(C(c2ccc(Cl)cc2)c2ccc(Cl)cc2)C1 [Compound 24, 3-[{1-[bis(4-chlorophenyl)methyl]azetidin-3-yl}(methylsulphonyl)amino]-5-fluoro-N-(isoxazol-4-yl)benzamide] | –
226 | CS(=O)(=O)N(c1cccc(C(=O)Nc2nnc(C3CC3)s2)c1)C1CN(C(c2ccc(Cl)cc2)c2ccc(Cl)cc2)C1 [Compound 6, 3-[{1-[bis(4-chlorophenyl)methyl]azetidin-3-yl}(methylsulphonyl)amino]-N-(5-cyclopropyl-1,3,4-thiadiazol-2-yl)benzamide] | –
222 to 224 | Cc1cc(NC(=O)c2cc(F)cc(N(C3CN(C(c4ccc(Cl)cc4)c4ccc(Cl)cc4)C3)S(C)(=O)=O)c2)no1 [Compound 21, 3-[{1-[Bis(4-chlorophenyl)methyl]azetidin-3-yl)(methylsulphonyl)amino]-5-fluoro-N-(5-methylisoxazol-3-yl)benzamide] | –
184 to 186 | Cc1ccnc(NC(=O)c2cc(F)cc(N(C3CN(C(c4ccc(Cl)cc4)c4ccc(Cl)cc4)C3)S(C)(=O)=O)c2)c1 [Compound 27, 3-[{1-[bis(4-chlorophenyl)methyl]azetidin-3-yl}(methylsulphonyl)amino]-5-fluoro-N-(4-methylpyridin-2-yl)benzamide] | –
165 | N#Cc1ccnc(NC(=O)c2cc(F)cc(NS(=O)(=O)CC3CN(C(c4ccc(Cl)cc4)c4ccc(Cl)cc4)C3)c2)c1 [Compound 34, 3-({1-[bis(4-chlorophenyl)methyl]azetidin-3-yl}methylsulphonylamino)-N-(4-cyanopyridin-2-yl)-5-fluorobenzamide] | –
208 | CS(=O)(=O)N(c1cccc(C(=O)Nc2cc(O)ccn2)c1)C1CN(C(c2ccc(Cl)cc2)c2ccc(Cl)cc2)C1 [Compound 11, 3-[{1-[bis(4-chlorophenyl)methyl]azetidin-3-yl}(methylsulphonyl)amino]-N-(4-hydroxypyridin-2-yl)benzamide] | IC50 [1, 3]: 0.17 µM
